# Experiments:
# Penicillium brevicaule = test: Material protection test (MIC on malt extract agar); type: cell-based; details: 336 h, two weeks at 28° C., 60 to 70% relative humidity, read-out: Minimal inhibitory concentration (MIC value) Penicillium brevicaule
# Description: (§1) active compounds of the invention are added at concentrations of 0.1 mg/l to 5000 mg/l to an agar prepared with malt extract. After the agar has solidified, it is infected with pure cultures of Penicillium brevicaule, Chaetomium globosum and Aspergillus niger. After storage for two weeks at 28° C. and 60 to 70% relative humidity, the minimal inhibitory concentration (MIC value) is determined. The MIC value characterizes the lowest concentration of active compound at which there is no growth of the microbial species used.
# Aspergillus niger = test: as above; type: cell-based; details: 336 h, two weeks at 28° C., 60 to 70% relative humidity, read-out: Minimal inhibitory concentration (MIC value) Aspergillus niger
# Description: as §1
# Chaetomium globosum = test: as above; type: cell-based; details: 336 h, two weeks at 28° C., 60 to 70% relative humidity, read-out: Minimal inhibitory concentration (MIC value) Chaetomium globosum
# Description: as §1
# Phytophthora infestans = test: whole plant or invertebrate; type: in vivo; details: for pest or weed control at 50 ppm: Phytophthora infestans, in Solanum lycopersicum, 72 h, read-out: Efficiency in %, based on the untreated control at an active compound concentration of 50 ppm; for Efficiency in %, based on the untreated control at an active compound concentration of 100 ppm: tomato, protective spray, evaluation 3 days after inoculation
# Plasmopara viticola = test: Plasmopara test (grapevines)/protective; type: in vivo; details: protective spray, evaluation 6 days after inoculation
# Description: Plasmopara Test (Grapevines)/Protective
# Solvent: 4.7 parts by weight of acetone
# Emulsifier: 0.3 parts by weight of alkylaryl polyglycol ether
# To obtain an expedient preparation of active compound, 1 part by weight of active compound is mixed with the amounts of solvent and emulsifier cited and the concentrate is diluted with water to the desired concentration.
# To test for protective activity, young plants are sprayed with the active compound preparation until dew moist. After the sprayed coating has dried on, the plants are inoculated with an aqueous spore suspension of Plasmopara viticola and then remain for 1 day in a moist chamber at 20 to 22° C. and 100% relative humidity. The plants are then set up for 5 days in a greenhouse at 21° C. and approximately 90% relative humidity. The plants are then moistened and placed in a moist chamber for 1 day.
# The evaluation is performed 6 days after the inoculation. In the evaluation, 0% denotes an efficiency corresponding to that of the untreated control, while an efficiency of 100% denotes that no contamination is observed.
smiles,measurement,setting,value
Cc1noc(C)c1C(=O)n1nnc2cc3c(cc21)OC(F)(F)C(F)(F)O3,MIC,Penicillium brevicaule,200 µg/mL
same,MIC,Aspergillus niger,400 µg/mL
same,MIC,Chaetomium globosum,100 µg/mL
Cc1noc(C)c1S(=O)(=O)n1nnc2ccccc21,pest or weed control at 50 ppm,Phytophthora infestans,97%
Cc1oncc1S(=O)(=O)n1nnc2c(Br)cc(C(F)(F)F)cc21,pest or weed control at 50 ppm,Phytophthora infestans,98%
Cc1onc(N)c1S(=O)(=O)n1nnc2cc3c(cc21)OC(F)(F)O3,pest or weed control at 50 ppm,Phytophthora infestans,97%
Cc1ccc2c(c1)nnn2S(=O)(=O)c1c(C)noc1C,pest or weed control at 50 ppm,Phytophthora infestans,97%
Cc1noc(C)c1S(=O)(=O)n1nnc2cc([N+](=O)[O-])ccc21,pest or weed control at 50 ppm,Phytophthora infestans,100%
Cc1noc(C)c1S(=O)(=O)n1nnc2cc(Cl)ccc21,pest or weed control at 50 ppm,Phytophthora infestans,100%
Cc1onc(N)c1S(=O)(=O)n1nnc2cc(Cl)ccc21,pest or weed control at 50 ppm,Phytophthora infestans,97%
Cc1oncc1S(=O)(=O)n1nnc2cc3c(cc21)OC(F)(F)C(F)(F)O3 [drawing 93],MIC,Penicillium brevicaule,200 µg/mL
same,MIC,Aspergillus niger,200 µg/mL
same,MIC,Chaetomium globosum,100 µg/mL
Cc1noc(C)c1S(=O)(=O)n1nnc2cc3c(cc21)OC(F)(F)C(F)(F)O3 [drawing 95],"Efficiency in %, based on the untreated control at an active compound concentration of 100 ppm",Phytophthora infestans,94%
Cc1noc(C)c1S(=O)(=O)n1nnc2cc3c(cc21)OC(F)(F)O3 [drawing 96],"Efficiency in %, based on the untreated control at an active compound concentration of 100 ppm",Phytophthora infestans,94%
Cc1noc(C)c1S(=O)(=O)n1nnc2c(Br)cc(C(F)(F)F)cc21 [drawing 97],"Efficiency in %, based on the untreated control at an active compound concentration of 100 ppm",Phytophthora infestans,95%
Cc1oncc1S(=O)(=O)n1nnc2cc3c(cc21)OC(F)(F)C(F)(F)O3 [drawing 98],"Efficiency in %, based on the untreated control at an active compound concentration of 100 ppm",Phytophthora infestans,94%
Cc1oncc1S(=O)(=O)n1nnc2cc3c(cc21)OC(F)(F)O3 [drawing 99],"Efficiency in %, based on the untreated control at an active compound concentration of 100 ppm",Phytophthora infestans,99%
Cc1noc(C)c1S(=O)(=O)n1nnc2cc3c(cc21)OC(F)(F)C(F)(F)O3 [drawing 100],pest or weed control at 50 ppm,Phytophthora infestans,95%
Cc1noc(C)c1S(=O)(=O)n1nnc2cc3c(cc21)OC(F)(F)O3 [drawing 101],pest or weed control at 50 ppm,Phytophthora infestans,99%
Cc1noc(C)c1S(=O)(=O)n1nnc2c(Br)cc(C(F)(F)F)cc21 [drawing 102],pest or weed control at 50 ppm,Phytophthora infestans,89%
Cc1oncc1S(=O)(=O)n1nnc2cc3c(cc21)OC(F)(F)O3 [drawing 103],pest or weed control at 50 ppm,Phytophthora infestans,100%
Cc1noc(C)c1S(=O)(=O)n1nnc2cc3c(cc21)OC(F)(F)C(F)(F)O3 [drawing 111],"Efficiency in %, based on the untreated control at an active compound concentration of 100 ppm",Plasmopara viticola,100%
Cc1noc(C)c1S(=O)(=O)n1nnc2cc3c(cc21)OC(F)(F)O3 [drawing 112],"Efficiency in %, based on the untreated control at an active compound concentration of 100 ppm",Plasmopara viticola,100%
Cc1oncc1S(=O)(=O)n1nnc2cc3c(cc21)OC(F)(F)C(F)(F)O3 [drawing 113],"Efficiency in %, based on the untreated control at an active compound concentration of 100 ppm",Plasmopara viticola,100%
Cc1oncc1S(=O)(=O)n1nnc2cc3c(cc21)OC(F)(F)O3 [drawing 114],"Efficiency in %, based on the untreated control at an active compound concentration of 100 ppm",Plasmopara viticola,100%

# — patent publication US6521653B2 (priority 1995, dated 2003)
